How the values were obtained:
LPAM-1/VCAM-1 = target: T1, LPAM-1/VCAM-1 (Homo sapiens, UniProt P13612+P26010); assay: LPAM-1/VCAM-1 adhesion inhibition test; type: cell-based
T1 sequence (P13612 34-1032): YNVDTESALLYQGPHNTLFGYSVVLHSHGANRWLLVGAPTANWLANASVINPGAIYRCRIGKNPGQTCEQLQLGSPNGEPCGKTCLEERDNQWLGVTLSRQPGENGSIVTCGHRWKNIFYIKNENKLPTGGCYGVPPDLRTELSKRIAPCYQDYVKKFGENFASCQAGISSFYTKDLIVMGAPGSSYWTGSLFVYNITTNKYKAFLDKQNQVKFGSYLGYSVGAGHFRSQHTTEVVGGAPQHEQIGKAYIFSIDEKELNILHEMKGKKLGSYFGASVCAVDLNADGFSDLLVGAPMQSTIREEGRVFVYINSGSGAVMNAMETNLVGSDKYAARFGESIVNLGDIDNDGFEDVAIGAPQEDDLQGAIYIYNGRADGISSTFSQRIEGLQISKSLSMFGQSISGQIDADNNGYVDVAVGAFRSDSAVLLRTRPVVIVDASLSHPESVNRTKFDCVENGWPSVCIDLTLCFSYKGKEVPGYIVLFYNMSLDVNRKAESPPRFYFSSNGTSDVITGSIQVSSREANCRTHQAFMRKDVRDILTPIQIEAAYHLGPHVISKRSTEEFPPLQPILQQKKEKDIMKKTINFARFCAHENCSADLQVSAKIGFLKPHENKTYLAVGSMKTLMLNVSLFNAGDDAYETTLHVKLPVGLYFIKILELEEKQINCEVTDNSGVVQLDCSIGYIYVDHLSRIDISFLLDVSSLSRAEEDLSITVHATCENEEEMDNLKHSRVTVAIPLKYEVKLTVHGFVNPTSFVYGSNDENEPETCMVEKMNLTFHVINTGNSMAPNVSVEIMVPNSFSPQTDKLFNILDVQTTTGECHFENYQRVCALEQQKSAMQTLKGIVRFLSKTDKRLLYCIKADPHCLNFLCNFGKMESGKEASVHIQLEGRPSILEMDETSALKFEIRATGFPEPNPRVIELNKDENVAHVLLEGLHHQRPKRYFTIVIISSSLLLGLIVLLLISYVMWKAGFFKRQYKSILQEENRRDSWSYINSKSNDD
T1 sequence (P26010 20-798): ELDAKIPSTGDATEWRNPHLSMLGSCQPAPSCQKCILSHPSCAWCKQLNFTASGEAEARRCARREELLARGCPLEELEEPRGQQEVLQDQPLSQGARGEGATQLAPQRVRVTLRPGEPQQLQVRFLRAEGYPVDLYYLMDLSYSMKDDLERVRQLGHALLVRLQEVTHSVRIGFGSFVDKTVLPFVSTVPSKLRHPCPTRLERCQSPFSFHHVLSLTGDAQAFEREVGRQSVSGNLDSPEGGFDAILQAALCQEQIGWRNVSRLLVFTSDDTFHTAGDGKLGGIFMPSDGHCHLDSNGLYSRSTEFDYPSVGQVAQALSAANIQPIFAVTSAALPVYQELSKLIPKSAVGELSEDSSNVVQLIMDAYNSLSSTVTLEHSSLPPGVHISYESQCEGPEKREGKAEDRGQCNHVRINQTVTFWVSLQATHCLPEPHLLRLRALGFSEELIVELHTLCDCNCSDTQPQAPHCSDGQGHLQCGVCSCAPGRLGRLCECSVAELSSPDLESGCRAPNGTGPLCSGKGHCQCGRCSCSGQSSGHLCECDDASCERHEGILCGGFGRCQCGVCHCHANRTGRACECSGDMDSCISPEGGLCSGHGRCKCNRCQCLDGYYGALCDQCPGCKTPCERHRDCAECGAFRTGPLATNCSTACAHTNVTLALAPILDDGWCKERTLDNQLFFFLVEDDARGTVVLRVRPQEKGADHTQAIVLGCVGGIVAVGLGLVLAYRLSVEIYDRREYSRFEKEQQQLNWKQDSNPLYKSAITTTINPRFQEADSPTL

VLA-4/VCAM-1 = target: T2, VLA-4/VCAM-1 (Homo sapiens, UniProt P05556+P13612); assay: VLA-4/VCAM-1 adhesion inhibition test (BCECF-labelled HL-60 cells adhering to VCAM-1 expressing CHO cells); type: cell-based; conditions: adhesion of VLA-4 expressing HL-60 cells to CHO cells transfected with human VCAM-1 gene; read-out: 50% inhibition concentration
T2 construct: endogenous in cells; host or cells: HL-60 cells (VLA-4, endogenous); CHO cells transfected with a human VCAM-1 gene (the ligand VCAM-1)
T2 sequence (P05556 21-798, one chain of several): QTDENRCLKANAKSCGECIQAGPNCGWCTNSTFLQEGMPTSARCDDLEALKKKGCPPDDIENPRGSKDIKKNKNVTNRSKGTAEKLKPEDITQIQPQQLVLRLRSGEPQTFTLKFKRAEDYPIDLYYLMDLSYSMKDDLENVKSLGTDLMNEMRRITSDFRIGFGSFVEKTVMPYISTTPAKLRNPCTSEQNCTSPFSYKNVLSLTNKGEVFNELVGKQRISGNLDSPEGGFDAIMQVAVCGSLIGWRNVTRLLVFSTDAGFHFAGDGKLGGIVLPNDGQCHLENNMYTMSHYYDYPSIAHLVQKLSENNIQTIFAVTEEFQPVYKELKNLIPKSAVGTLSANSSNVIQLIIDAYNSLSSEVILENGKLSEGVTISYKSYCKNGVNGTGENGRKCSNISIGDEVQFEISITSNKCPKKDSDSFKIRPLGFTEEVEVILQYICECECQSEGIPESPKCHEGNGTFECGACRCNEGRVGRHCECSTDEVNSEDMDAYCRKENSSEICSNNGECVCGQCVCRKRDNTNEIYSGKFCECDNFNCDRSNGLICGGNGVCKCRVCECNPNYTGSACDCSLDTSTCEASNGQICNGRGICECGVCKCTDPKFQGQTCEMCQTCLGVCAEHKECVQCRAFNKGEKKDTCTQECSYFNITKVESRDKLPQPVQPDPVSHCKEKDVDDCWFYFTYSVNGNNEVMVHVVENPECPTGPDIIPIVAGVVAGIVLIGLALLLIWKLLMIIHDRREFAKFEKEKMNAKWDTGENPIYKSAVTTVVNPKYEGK
Protocol: Test Example 1 VLA-4/VCAM-1 Adhesion Inhibition Test
The above VCAM-1 expressing CHO cells were placed in a 96-well culture plate in amount of 7×10^3 cells per well and cultured in Ham's F-12 medium containing 10 wt % fetal calf serum (FCS) for 3 days until a confluent state was satisfied. The HL-60 cells were re-floated in Hanks' solution containing 0.4 wt % bovine serum albumin (BSA), and 5 μM of 2′,7′-bis(carboxyethyl)-5(6)-carboxyfluorescein penta acetoxy methyl ester (BCECF-AM) was added to label the cells. Solutions having various concentrations of each test substance and having an amount of 20 μl each were added to 180 μl each of suspensions of BCECF-labeled HL-60 cells re-floated at a rate of 4×10^6 cells/ml in the FCS-non-containing RPMI 1640 culture medium, and pre-treated at 37° C. for 15 minutes.
Then, the pre-treated HL-60 cells were stratified in the 96-well plate culturing the VCAM-1 expressing CHO cells at a rate of 2×10^5 cells per well, and allowed to adhere thereto at 37° C. for 5 minutes. Then, the plate was filled with 0.4 wt % BSA Hanks, covered with a plate sealer and turned upside down. Further, the cells were cultured for 45 minutes. After washing, 1 wt % NP-40-containing PBS was added to destroy the cells, and the thus-obtained supernatants were measured for fluorescence intensity with a cyto Fluor 2300 fluorescence measurement system (supplied by Millipore).
Further, as a blank, 1 wt % NP-40-containing PBS was measured for fluorescence intensity. Further, as standards, a fluorescence-labeled HL-60 floating liquid was added to 1 wt % NP-40-containing PBS at a rate of 2×10^5, 10^5, 2×10^4 and 10^4 cells/ml, the cells were destroyed, and the thus-obtained supernatants were measured for fluorescence intensity.
Each test substance was measured as described above, and on the basis of the calibration curve prepared from the measurements of the standard, cells in a control and cells adhering to the VCAM-1 expressive CHO cells due to the addition of the test substances were measured for numbers, and cell adhesion inhibition ratios (%) were calculated on the basis of the following equation.
Cell adhesion inhibition ratio (%)=100×[1−(number of adhered cells of groups to which the test substance was added/number of adhered cells of control groups)

Row | adhesion inhibition activity (LPAM-1/VCAM-1) | IC50 (VLA-4/VCAM-1) [nM] | SMILES
1 | adhesion inhibition activity was found | 3 | COc1ccc(C(Cc2ccc(NC(=O)c3c(Cl)cccc3Cl)nc2)C(=O)O)cc1N(CC(C)C)C(=O)C(C)(C)C (centres unmarked) [Example 1, 3-[2-(2,6-dichlorobenzoylamino)pyrid-5-yl]-2-{3-[(2,2-dimethylpropionyl)isobutylamino]-4-methoxyphenyl}propionic acid]
2 | – | 12 | COc1ccc(C(Cc2ccc(NC(=O)c3c(Cl)cccc3Cl)nc2)C(=O)O)cc1N(CC(C)C)C(=O)C(C)C (centres unmarked) [Example 2]
3 | – | 33 | CCC(CC)C(=O)N(CC(C)C)c1cc(C(Cc2ccc(NC(=O)c3c(Cl)cccc3Cl)nc2)C(=O)O)ccc1OC (centres unmarked) [Example 3]
4 | – | 48 | CCOc1ccc(C(Cc2ccc(NC(=O)c3c(Cl)cccc3Cl)nc2)C(=O)O)cc1N(CC(C)C)C(=O)C(C)C (centres unmarked) [Example 5]
5 | – | 13 | CCOc1ccc(C(Cc2ccc(NC(=O)c3c(Cl)cccc3Cl)nc2)C(=O)O)cc1N(CC(C)C)C(=O)C(C)(C)C (centres unmarked) [Example 6]
6 | – | 7.3 | CCOc1ccc(C(Cc2ccc(NC(=O)c3c(Cl)cccc3Cl)nc2)C(=O)O)cc1N(CC(C)C)C(=O)C(CC)CC (centres unmarked) [Example 7]
7 | adhesion inhibition activity was found | 2.8 | COc1ccc(C(Cc2ccc(NC(=O)c3c(Cl)cncc3Cl)nc2)C(=O)O)cc1N(CC(C)C)C(=O)C(C)(C)C (centres unmarked) [Example 9]
8 | adhesion inhibition activity was found | 1.2 | CCOc1ccc(C(Cc2ccc(NC(=O)c3c(Cl)cncc3Cl)nc2)C(=O)O)cc1N(CC(C)C)C(=O)C(C)(C)C (centres unmarked) [Example 10]

Source: patent publication US7361679B2, “2-phenyl-3-heteroarylpropionic acid derivative or salt thereof and medicine containing the same” (Kaken Pharmaceutical Co., Ltd., priority 2001, dated 2008)
